Laboratory results published in patent publication US7335674B2, “Benzothiazole-4,7-diones and benzoxazole-4,7-diones with substituents in position 5 or 6 and method for production thereof” (Societe de Conseils de Recherches et d'Applications …, priority 2003, dated 2008).

Columns and labels:
[1] = system: DU145 (human prostate cancer cells); assay: Antiproliferative activity, WST1 colorimetric test, DU145; type: cell-based; details: DU-145, treated 96 hours, up to 10 μM, read-out: IC50 on the cell proliferation of the DU-145 lines
Experimental: (§1) iii) Characterization of the Antiproliferative Activity:
(§2) By way of example, the effect of a treatment on two human cell lines Mia-Paca2 and DU145 by the compounds of the examples described previously will be studied. The cell lines DU145 (human prostate cancer cells) and Mia-PaCa2 (human pancreas cancer cells) were acquired from the American Tissue Culture Collection (Rockville, Md., USA). The cells placed in 80 μl of Dulbecco's Modified Eagle's medium (Gibco-Brl, Cergy-Pontoise, France) completed with 10% foetal calf serum inactivated by heating (Gibco-Brl, Cergy-Pontoise, France), 50,000 units/l of penicillin and 50 mg/l of streptomycin (Gibco-Brl, 10378-057, Cergy-Pontoise, France), and 2 mM of glutamine (Gibco-Brl, Cergy-Pontoise, France) were seeded on a 96-well plate on day 0. The cells were treated on day 1 for 96 hours with increasing concentrations of each of the compounds to be tested up to 10 μM. At the end of this period, quantification of cell proliferation is evaluated by a colorimetric test based on the cleavage of the tetrazolium salt WST1 by the mitochondrial dehydrogenases in viable cells leading to the formation of formazan (Boehringer Mannheim, Meylan, France). These tests are carried out in duplicate with 8 determinations per concentration tested. For each compound to be tested, the values included in the linear part of the sigmoid were retained for a linear regression analysis and used to estimate the inhibitory concentration IC50. The products are solubilized in dimethylsulphoxide (DMSO) at 10^−2 M and finally used in culture with 0.1% DMSO.

[2] = system: Mia-Paca2 (human pancreas cancer cells); assay: Antiproliferative activity, WST1 colorimetric test, Mia-PaCa2; type: cell-based; details: MIA PaCa-2, Mia-Paca2, treated 96 hours, up to 10 μM, read-out: IC50 on the cell proliferation of the Mia-Paca2 lines
Experimental: as §1, §2

Row | melting point [°C] | IC50 [1] [µM] | IC50 [2] [µM] | SMILES
1 | 187 to 188 | ≤ 10 | ≤ 10 | CN(C)CCNC1=CC(=O)c2oc(-c3cccc(Br)c3)nc2C1=O [Example 17, 2-(3-bromophenyl)-5-{[2-(dimethylamino)ethyl]amino}-1,3-benzoxazole-4,7-dione]
2 | 181 to 182 | ≤ 10 | ≤ 10 | COc1ccc(-c2nc3c(o2)C(=O)C(NCCN(C)C)=CC3=O)cc1OC [Example 41, 2-(3,4-dimethoxyphenyl)-6-{[2-(dimethylamino)ethyl]amino}-1,3-benzoxazole-4,7-dione]
3 | 172 to 173 | ≤ 10 | ≤ 10 | CN(C)CCNC1=CC(=O)c2nc(-c3cccc4ccccc34)sc2C1=O [Example 9, 6-{[2-(dimethylamino)ethyl]amino}-2-(1-naphthyl)-1,3-benzothiazole-4,7-dione]
4 | 178 to 179 | ≤ 10 | ≤ 10 | CN(C)CCNC1=CC(=O)c2oc(-c3cccc(F)c3F)nc2C1=O [Example 20, 2-(2,3-difluorophenyl)-5-{[2-(dimethylamino)ethyl]amino}-1,3-benzoxazole-4,7-dione]
5 | 194 to 195 | ≤ 10 | ≤ 10 | CN(C)CCNC1=CC(=O)c2nc(-c3ccc(-c4ccccc4)cc3)sc2C1=O [Example 10, 2-(1,1′-biphenyl-4-yl)-6-{[2-(dimethylamino)ethyl]amino}-1,3-benzothiazole-4,7-dione]
6 | 187 to 188 | ≤ 10 | ≤ 10 | CN(C)CCNC1=CC(=O)c2oc(-c3cc(F)cc(F)c3)nc2C1=O [Example 19, 2-(3,5-difluorophenyl)-5-{[2-(dimethylamino)ethyl]amino}-1,3-benzoxazole-4,7-dione]
7 | 123 to 124 | ≤ 10 | ≤ 10 | O=C1C=C(NCCN2CCCC2)C(=O)c2oc(-c3ccccc3Br)nc21 [Example 45, 2-(2-bromophenyl)-6-[(2-pyrrolidin-1-ylethyl)amino]-1,3-benzoxazole-4,7-dione]
8 | 170 to 171 | ≤ 10 | ≤ 10 | O=C1C=C(NCCN2CCCC2)C(=O)c2oc(-c3ccc(F)cc3)nc21 [Example 50, 2-(4-fluorophenyl)-6-[(2-pyrrolidin-1-ylethyl)amino]-1,3-benzoxazole-4,7-dione]
9 | 182 to 183 | ≤ 10 | ≤ 10 | O=C1C(NCCN2CCCC2)=CC(=O)c2oc(-c3cc(F)cc(F)c3)nc21 [Example 25, 2-(3,5-difluorophenyl)-5-[(2-pyrrolidin-1-ylethyl)amino]-1,3-benzoxazole-4,7-dione]
10 | 188 to 189 | ≤ 10 | ≤ 10 | CN(C)CCNC1=CC(=O)c2nc(-c3cc(F)c(F)c(F)c3)oc2C1=O [Example 36, 6-{[2-(dimethylamino)ethyl]amino}-2-(3,4,5-trifluorophenyl)-1,3-benzoxazole4,7-dione]
11 | 163 to 164 | ≤ 10 | ≤ 10 | CN(C)CCNC1=CC(=O)c2nc(-c3ccc(Br)cc3Cl)oc2C1=O [Example 39, 2-(4-bromo-2-chlorophenyl)-6-{[2-(dimethylamino)ethyl]amino}-1,3-benzoxazole4,7-dione]
12 | 151 to 152 | ≤ 10 | ≤ 10 | CCc1ccc(-c2nc3c(o2)C(=O)C(NCCN(C)C)=CC3=O)cc1 [Example 38, 6-{[2-(dimethylamino)ethyl]amino}-2-(4-ethylphenyl)-1,3-benzoxazole-4,7-dione]
13 | 178 to 179 | ≤ 10 | ≤ 10 | CN(C)CCNC1=CC(=O)c2nc(Cc3c(F)cccc3Cl)oc2C1=O [Example 43, 2-(2-chloro-6-fluorobenzyl)-6-{[2-(dimethylamino)ethyl]amino}-1,3-benzoxazole4,7-dione]
14 | 153 to 154 | ≤ 10 | ≤ 10 | O=C1C=C(NCCN2CCCC2)C(=O)c2oc(-c3ccc(Br)cc3Cl)nc21 [Example 55, 2-(4-bromo-2-chlorophenyl)-6-[(2-pyrrolidin-1-ylethyl)amino]-1,3-benzoxazole-4,7-dione]
15 | 202 to 203 | ≤ 10 | ≤ 10 | O=C1C=C(NCCN2CCCC2)C(=O)c2oc(-c3cc(Br)cc(Br)c3)nc21 [Example 49, 2-(3,5-dibromophenyl)-6-[(2-pyrrolidin-1-ylethyl)amino]-1,3-benzoxazole-4,7-dione]
16 | 181 to 182 | ≤ 10 | ≤ 10 | CN(C)CCNC1=CC(=O)c2oc(-c3cc(F)ccc3F)nc2C1=O [Example 15, 2-(2,5-difluorophenyl)-5-{[2-(dimethylamino)ethyl]amino}-1,3-benzoxazole-4,7-dione]
17 | 165 to 166 | ≤ 10 | ≤ 10 | Cc1cc(-c2nc3c(o2)C(=O)C(NCCN(C)C)=CC3=O)ccc1Br [Example 37, 2-(4-bromo-3-methylphenyl)-6-{[2-(dimethylamino)ethyl]amino}-1,3-benzoxazole-4,7-dione]
18 | 171 to 172 | ≤ 10 | ≤ 10 | O=C1C=C(NCCN2CCCC2)C(=O)c2oc(-c3ccc4c(c3)OCO4)nc21 [Example 59, 2-(1,3-benzodioxol-5-yl)-6-[(2-pyrrolidin-1-ylethyl)amino]-1,3-benzoxazole4,7-dione]
19 | 174 to 175 | ≤ 10 | ≤ 10 | CN(C)CCNC1=CC(=O)c2nc(-c3cccc(Br)c3)oc2C1=O [Example 29, 2-(3-bromophenyl)-6-{[2-(dimethylamino)ethyl]amino}-1,3-benzoxazole4,7-dione]
20 | 246 to 247 | ≤ 10 | ≤ 10 | CN(C)CCNC1=CC(=O)c2nc(-c3ccc(F)cc3)sc2C1=O [Example 8, 6-{[2-(dimethylamino)ethyl]amino}-2-(4-fluorophenyl)-1,3-benzothiazole4,7-dione]
21 | 172 to 173 | ≤ 10 | ≤ 10 | CN(C)CCNC1=CC(=O)c2nc(Cc3c(Cl)cccc3Cl)oc2C1=O [Example 42, 2-(2,6-dichlorobenzyl)-6-{[2-(dimethylamino)ethyl]amino}-1,3-benzoxazole4,7-dione]
22 | 178 to 179 | ≤ 10 | ≤ 10 | CN(C)CCNC1=CC(=O)c2nc(-c3cccc(F)c3F)oc2C1=O [Example 35, 2-(2,3-difluorophenyl)-6-{[2-(dimethylamino)ethyl]amino}-1,3-benzoxazole-4,7-dione]
23 | 163 to 164 | ≤ 10 | ≤ 10 | O=C1C=C(NCCN2CCCC2)C(=O)c2oc(-c3cccc(Br)c3)nc21 [Example 46, 2-(3-bromophenyl)-6-[(2-pyrrolidin-1-ylethyl)amino]-1,3-benzoxazole-4,7-dione]
24 | 135 to 136 | ≤ 10 | ≤ 10 | CN(C)CCNC1=CC(=O)c2oc(Cc3ccccc3)nc2C1=O [Example 23, 2-benzyl-5-{[2-(dimethylamino)ethyl]amino}-1,3-benzoxazole-4,7-dione]
25 | 193 to 194 | ≤ 10 | ≤ 10 | O=C1C(NCCN2CCCC2)=CC(=O)c2oc(-c3cc(F)c(F)c(F)c3)nc21 [Example 26, 5-[(2-pyrrolidin-1-ylethyl)amino]-2-(3,4,5-trifluorophenyl)-1,3-benzoxazole-4,7-dione]
26 | 171 to 172 | ≤ 10 | ≤ 10 | Cc1cc(-c2nc3c(o2)C(=O)C(NCCN2CCCC2)=CC3=O)ccc1Br [Example 53, 2-(4-bromo-3-methylphenyl)-6-[(2-pyrrolidin-1-ylethyl)amino]-1,3-benzoxazole-4,7-dione]
27 | 169 to 170 | ≤ 10 | ≤ 10 | CN(C)CCNC1=CC(=O)c2nc(-c3ccc(F)cc3)oc2C1=O [Example 33, 6-{[2-(dimethylamino)ethyl]amino}-2-(4-fluorophenyl)-1,3-benzoxazole4,7-dione]
28 | 206 to 207 | ≤ 10 | ≤ 10 | CN(C)CCNC1=CC(=O)c2nc(-c3cc(Br)cc(Br)c3)oc2C1=O [Example 32, 2-(3,5-dibromophenyl)-6-{[2-(dimethylamino)ethyl]amino}-1,3-benzoxazole-4,7-dione]
29 | 176 to 177 | ≤ 10 | ≤ 10 | CN(C)CCNC1=CC(=O)c2nc(-c3cc(F)cc(F)c3)oc2C1=O [Example 34, 2-(3,5-difluorophenyl)-6-{[2-(dimethylamino)ethyl]amino}-1,3-benzoxazole-4,7-dione]
